Laboratory results taken from publication PMC11157491, “Novel Alaninamide Derivatives with Drug-like Potential for Development as Antiseizure and Antinociceptive Therapies—In Vitro and In Vivo Characterization” (ACS Chemical Neuroscience, 2024).

Experiments:
[1] = target: T1, Cav2.2 calcium ion channel (Rattus norvegicus, UniProt Q02294); assay: Cav2.2 binding (antagonist radioligand); conditions: rat cerebral cortex, read-out: % inhibition of control specific binding
T1 construct: rat cerebral cortex; tissue Eurofins (contract assay); host or cells: rat cerebral cortex
T1 sequence (Q02294 whole entry): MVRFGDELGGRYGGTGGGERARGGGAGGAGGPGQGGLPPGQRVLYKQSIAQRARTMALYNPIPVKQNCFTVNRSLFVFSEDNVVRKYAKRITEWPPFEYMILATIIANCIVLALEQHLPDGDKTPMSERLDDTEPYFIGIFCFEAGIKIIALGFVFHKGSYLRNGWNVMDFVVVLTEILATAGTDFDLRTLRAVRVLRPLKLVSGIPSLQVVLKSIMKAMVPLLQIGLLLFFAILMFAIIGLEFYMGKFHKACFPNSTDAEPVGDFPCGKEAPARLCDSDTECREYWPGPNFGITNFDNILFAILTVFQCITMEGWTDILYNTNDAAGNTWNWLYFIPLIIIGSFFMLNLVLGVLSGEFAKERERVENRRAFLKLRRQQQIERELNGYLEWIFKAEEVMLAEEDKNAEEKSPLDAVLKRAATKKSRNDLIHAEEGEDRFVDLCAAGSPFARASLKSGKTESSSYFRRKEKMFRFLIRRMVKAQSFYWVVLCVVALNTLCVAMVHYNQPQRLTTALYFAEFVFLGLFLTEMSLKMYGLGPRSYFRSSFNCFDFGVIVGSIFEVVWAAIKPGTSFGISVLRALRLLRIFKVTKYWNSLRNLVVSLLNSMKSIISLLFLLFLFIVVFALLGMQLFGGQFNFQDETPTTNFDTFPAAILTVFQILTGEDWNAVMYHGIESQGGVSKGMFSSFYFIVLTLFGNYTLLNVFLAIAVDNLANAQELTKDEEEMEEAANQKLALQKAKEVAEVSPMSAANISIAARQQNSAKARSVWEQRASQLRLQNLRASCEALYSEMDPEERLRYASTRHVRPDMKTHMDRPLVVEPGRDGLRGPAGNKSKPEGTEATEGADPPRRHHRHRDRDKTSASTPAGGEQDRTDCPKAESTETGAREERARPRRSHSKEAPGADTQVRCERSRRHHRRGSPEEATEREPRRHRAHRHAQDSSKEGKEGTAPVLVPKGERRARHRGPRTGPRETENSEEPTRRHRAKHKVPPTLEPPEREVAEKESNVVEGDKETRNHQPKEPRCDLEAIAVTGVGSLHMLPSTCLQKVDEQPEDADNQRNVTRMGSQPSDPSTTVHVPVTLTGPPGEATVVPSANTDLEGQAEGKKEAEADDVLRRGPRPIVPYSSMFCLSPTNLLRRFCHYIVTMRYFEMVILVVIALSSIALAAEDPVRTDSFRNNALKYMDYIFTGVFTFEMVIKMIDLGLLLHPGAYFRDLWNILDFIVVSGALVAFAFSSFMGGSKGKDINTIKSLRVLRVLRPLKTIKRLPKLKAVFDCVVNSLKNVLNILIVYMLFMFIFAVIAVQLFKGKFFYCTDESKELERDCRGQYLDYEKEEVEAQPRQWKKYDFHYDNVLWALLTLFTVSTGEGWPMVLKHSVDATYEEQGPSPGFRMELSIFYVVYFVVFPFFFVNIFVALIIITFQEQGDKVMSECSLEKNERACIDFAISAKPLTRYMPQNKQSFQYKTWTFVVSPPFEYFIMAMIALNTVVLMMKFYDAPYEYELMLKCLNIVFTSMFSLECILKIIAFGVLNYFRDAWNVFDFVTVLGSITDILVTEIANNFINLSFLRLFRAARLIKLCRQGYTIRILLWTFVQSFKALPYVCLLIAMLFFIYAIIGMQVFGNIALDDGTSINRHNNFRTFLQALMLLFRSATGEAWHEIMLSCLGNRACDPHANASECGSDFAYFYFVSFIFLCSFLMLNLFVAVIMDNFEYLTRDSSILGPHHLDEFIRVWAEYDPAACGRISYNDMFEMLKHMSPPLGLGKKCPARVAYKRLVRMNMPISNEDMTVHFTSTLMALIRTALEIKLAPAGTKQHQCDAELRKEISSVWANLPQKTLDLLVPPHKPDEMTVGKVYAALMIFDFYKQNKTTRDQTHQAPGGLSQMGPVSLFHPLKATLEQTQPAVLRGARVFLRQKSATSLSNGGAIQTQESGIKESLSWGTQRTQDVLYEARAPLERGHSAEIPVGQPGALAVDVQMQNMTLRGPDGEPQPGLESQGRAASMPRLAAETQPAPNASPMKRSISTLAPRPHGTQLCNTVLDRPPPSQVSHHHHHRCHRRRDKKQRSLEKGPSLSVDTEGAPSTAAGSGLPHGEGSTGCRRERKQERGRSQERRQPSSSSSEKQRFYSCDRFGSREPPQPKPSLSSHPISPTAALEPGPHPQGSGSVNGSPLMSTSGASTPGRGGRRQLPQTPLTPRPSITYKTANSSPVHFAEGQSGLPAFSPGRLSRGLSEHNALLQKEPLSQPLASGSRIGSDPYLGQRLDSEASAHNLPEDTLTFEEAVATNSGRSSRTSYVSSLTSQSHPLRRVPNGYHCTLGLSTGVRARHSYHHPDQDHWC
T1 sequence (P54287 whole entry partner): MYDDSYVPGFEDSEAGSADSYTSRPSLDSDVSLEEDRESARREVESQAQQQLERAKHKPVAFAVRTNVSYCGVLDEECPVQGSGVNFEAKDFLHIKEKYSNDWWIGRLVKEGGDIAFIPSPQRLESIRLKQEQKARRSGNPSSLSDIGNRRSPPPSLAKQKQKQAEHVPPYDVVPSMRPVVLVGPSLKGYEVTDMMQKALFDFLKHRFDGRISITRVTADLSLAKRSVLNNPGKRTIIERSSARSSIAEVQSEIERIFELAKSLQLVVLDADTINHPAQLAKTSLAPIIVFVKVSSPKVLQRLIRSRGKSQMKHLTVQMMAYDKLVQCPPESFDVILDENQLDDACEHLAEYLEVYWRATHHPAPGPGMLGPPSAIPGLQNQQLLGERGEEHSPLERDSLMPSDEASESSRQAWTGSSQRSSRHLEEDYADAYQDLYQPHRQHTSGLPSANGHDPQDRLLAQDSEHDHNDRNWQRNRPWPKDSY
T1 sequence (P54290 25-944 partner limits assumed): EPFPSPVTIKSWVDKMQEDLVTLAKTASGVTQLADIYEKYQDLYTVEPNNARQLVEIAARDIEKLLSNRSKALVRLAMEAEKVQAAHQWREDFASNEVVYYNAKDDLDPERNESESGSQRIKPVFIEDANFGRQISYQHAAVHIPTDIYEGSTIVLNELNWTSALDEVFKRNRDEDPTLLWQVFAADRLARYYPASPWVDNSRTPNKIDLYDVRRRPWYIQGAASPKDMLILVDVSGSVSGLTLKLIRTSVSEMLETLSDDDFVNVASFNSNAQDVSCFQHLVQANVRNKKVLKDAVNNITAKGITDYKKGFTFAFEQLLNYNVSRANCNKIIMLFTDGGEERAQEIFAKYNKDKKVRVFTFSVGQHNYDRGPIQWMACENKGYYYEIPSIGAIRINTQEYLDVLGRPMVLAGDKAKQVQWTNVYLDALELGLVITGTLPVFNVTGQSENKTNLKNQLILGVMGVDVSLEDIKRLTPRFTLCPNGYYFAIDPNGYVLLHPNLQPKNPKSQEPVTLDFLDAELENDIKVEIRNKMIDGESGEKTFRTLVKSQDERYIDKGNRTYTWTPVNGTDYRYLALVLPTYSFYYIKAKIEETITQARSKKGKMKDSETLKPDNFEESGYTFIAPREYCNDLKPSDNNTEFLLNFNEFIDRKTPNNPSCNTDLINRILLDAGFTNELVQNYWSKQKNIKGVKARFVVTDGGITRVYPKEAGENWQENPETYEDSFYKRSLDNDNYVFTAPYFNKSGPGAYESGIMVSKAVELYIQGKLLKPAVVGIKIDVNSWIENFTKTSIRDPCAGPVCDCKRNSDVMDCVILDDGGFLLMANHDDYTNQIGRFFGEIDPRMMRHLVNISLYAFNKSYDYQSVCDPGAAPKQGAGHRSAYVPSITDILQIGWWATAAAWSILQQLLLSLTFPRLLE
T1 sequence (P54290 945-1091 partner limits assumed): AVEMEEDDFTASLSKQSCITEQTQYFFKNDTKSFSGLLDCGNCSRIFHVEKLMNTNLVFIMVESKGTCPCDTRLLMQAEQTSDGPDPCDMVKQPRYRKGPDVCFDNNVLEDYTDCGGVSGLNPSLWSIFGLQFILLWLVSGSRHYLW
Method: (§1) Binding/functional studies were carried out commercially in Eurofins Laboratories (Poitiers, France) and Eurofins Panlabs Discovery Services Taiwan, Ltd. (New Taipei City, Taiwan) using testing procedures that were reported previously (for details, see Table S2).
(§2) Table S2. Radioligand binding and functional assays. […]
Cav2.2 calcium ion channel (antagonist radioligand) […]
(§3) Potassium channel (hERG) […]
(§4) Assays were performed commercially in Eurofins Laboratories ( Poitiers, France) or Eurofins Panlabs Discovery Services
(§5) Taiwan, Ltd. (New Taipei City, Taiwan).

[2] = test system: glutamate and GABA concentrations in the hippocampus and cortex; assay: Glutamate and GABA concentrations in hippocampus and cortex of PTZ-kindled mice (LC-MS/MS); format: in vivo
Source text: After completion of behavioral tests, animals were sacrificed and the brains were collected for the analysis of glutamate and GABA concentrations in the hippocampus and cortex. No changes in glutamate and GABA concentrations were reported in the hippocampus (Figure 4A). However, statistically significant differences in the concentration of both glutamate and GABA (Figure 4B) were found in the cortex. The FST procedure increased cortical glutamate concentrations in this brain structure as compared to naive mice (p < 0.05), whereas PTZ-induced kindling caused a ∼30% decrease in glutamate concentrations in comparison to the nonkindled control group exposed to the FST test (p < 0.0001).
Concentrations of GABA and glutamate in the mouse prefrontal cortex and hippocampus were measured by the liquid chromatography-tandem mass spectrometry (LC-MS/MS) method. Standards of both analytes were purchased from Toronto Research Chemicals Inc. (Toronto, ON, Canada). The stock standard solutions of GABA and glutamate were prepared in methanol and deionized water, respectively, and stored at 4 °C. A series of solution mixtures of desired concentrations were prepared by suitable dilutions of the stock solutions. Before analysis, murine brains were homogenized in distilled water at the ratio of 50 μL/mg using a handheld pestle and a glass tube homogenizer (Potter–Elvehjem PTFE pestle and glass tube, Sigma-Aldrich). Homogenates were centrifuged at 8000g for 10 min at 4 °C, and the supernatant was diluted 10 times with 0.1% formic acid in MeCN. After addition of isotope-labeled GABA-d6 and glutamate-d5 (Toronto Research Chemicals Inc., Toronto, ON, Canada) as internal standards (10 μL at a concentration of 500 ng/mL), samples (10 μL) were deproteinized with 80 μL of 0.1% formic acid in MeCN by shaking for 10 min (IKA Vibrax VXR, Germany) and then centrifuged for 5 min at a speed of 8000g (Eppendorf miniSpin centrifuge). The obtained supernatants were transferred into the autosampler vials. Chromatographic separation was carried out on an XBridge HILIC analytical column (2.1 × 150 mm^2, 3.5 μm, Waters, Ireland) with the oven temperature set at 25 °C using the Excion LC AC HPLC system. The autosampler temperature was maintained at 15 °C, and a sample volume of 2 μL was injected into the LC-MS/MS system. […] The tandem mass spectrometer was operated at unit resolution in the selected reaction monitoring mode (SRM), monitoring the transition of the protonated molecular ions m/z 104–87 and m/z 104–69 for GABA and m/z 148–84 and m/z 148–102 for glutamate (the first pair was used as a quantifier and the second for the identity verification—qualifier). For isotope-labeled GABA-d6 and glutamate-d5 monitored pairs were m/z 110–93 and m/z 153–88, respectively. […]

GABAA ion channel = GABAA ion channel [3H]GABA binding (agonist radioligand); conditions: 100 μM, rat hippocampus
Method: as §1, §2
GABAA ion channel [3H]GABA (agonist radioligand)
as §3, §4, §5

`CC(=O)NC(C)C(=O)N1CCN(c2cccc(OC(F)(F)F)c2)CC1` (stereo not shown) [Compound 28, N-(1-oxo-1-(4-(3-(Trifluoromethoxy)phenyl)piperazin-1-yl)propan-2-yl)acetamide] was tested, and the inhibition at 100 µM [1] was 3.6%, the “GABA concentrations in the cortex” value ([2]; PTZ-kindled animals vs PTZ-kindled control) was “did not affect GABA concentrations” and the “cortical glutamate concentration (PTZ-kindling-induced decrease)” value ([2]; cortex, 28 at 40 mg/kg, VPA 150 mg/kg) was “reversed this effect”. For the same compound, the “% inhibition of control specific binding” value (GABAA ion channel) was 10.0%.
